Literature values in PMC4324444 (ACS Chemical Biology, 2014).

Target: XIAP
Conditions: read-out: binding affinity to XIAP (Ki)

- Ki: > 30 µM
SMILES: CN[C@@H](C)C(=O)N[C@H](C(=O)N1CC[C@H](C)[C@H]1C(=O)Nc1ccccc1-c1ncccn1)C1CCCCC1 [CS3]
